Test results as given in patent US10820591B2, “Substituted sulfonyl amides for controlling animal pests” (Bayer Aktiengesellschaft, priority 2016, dated 2020).

system: Meloidogyne incognita; experiment: Meloidogyne incognita test (sand, lettuce, gall formation); format: in vivo; conditions: Meloidogyne incognita, 336 h, 20 ppm, after 14 days; read-out: nematicidal efficacy (formation of galls)
Summary of the method: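 Gall counts on lettuce roots were scored after 14 days in sand inoculated with root-knot nematode eggs/larvae plus compound diluted in water. Values run from 0% (galls as in untreated plants) to 100% (gall-free).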

In order of rising pest or weed control at 20 ppm:
1. COc1ccc(S(=O)(=O)NC(=O)c2ncn(-c3ccc(C(F)(F)F)cc3)c2Cl)cc1 [I-426]  90%
2. O=C(NS(=O)(=O)c1cccc(Cl)c1)c1ncn(-c2ccccc2C(F)(F)F)c1Cl [I-428]  90%
3. COc1cccc(S(=O)(=O)NC(=O)c2ncn(-c3ccccc3C(F)(F)F)c2Cl)c1 [I-429]  90%
4. COc1ccc(S(=O)(=O)NC(=O)c2ncn(-c3ccccc3C(F)(F)F)c2Cl)cc1 [I-430]  90%
5. O=C(NS(=O)(=O)c1ccc(Cl)cc1)c1ncn(-c2cccc(C(F)(F)F)c2)c1Cl [I-431]  90%
6. O=C(NS(=O)(=O)c1cccc(Cl)c1)c1ncn(-c2cccc(C(F)(F)F)c2)c1Cl [I-432]  90%
7. COc1ccc(S(=O)(=O)NC(=O)c2ncn(-c3cccc(C(F)(F)F)c3)c2Cl)cc1 [I-437]  90%
8. COc1ccc(Cl)c(S(=O)(=O)NC(=O)c2cn(-c3cc(Cl)nc(Cl)c3)c(Cl)n2)c1 [I-439]  90%
9. CSc1nc(C(=O)NS(=O)(=O)c2ccccc2Cl)cn1CCC(F)(F)F [I-445]  90%
10. CSc1nc(C(=O)NS(=O)(=O)c2ccccc2Cl)c(Cl)n1CCC(F)(F)F [I-446]  90%
11. O=C(NS(=O)(=O)c1ccccc1Cl)c1cc(-c2cc(Cl)cc(Cl)c2)n(CC(F)(F)F)n1 [I-447]  90%
12. O=C(NS(=O)(=O)c1c(Cl)cccc1Cl)c1nc(Cl)n(CCC(F)(F)F)c1Cl [I-451]  90%
13. COc1ccccc1S(=O)(=O)NC(=O)c1ncn(-c2ccc(Cl)cc2)c1Cl [I-420]  100%
14. O=C(NS(=O)(=O)c1ccccc1)c1ncn(-c2ccc(C(F)(F)F)cc2)c1Cl [I-421]  100%
15. O=C(NS(=O)(=O)c1cccc(Cl)c1)c1ncn(-c2ccc(C(F)(F)F)cc2)c1Cl [I-422]  100%
16. O=C(NS(=O)(=O)c1ccccc1Cl)c1ncn(-c2ccc(C(F)(F)F)cc2)c1Cl [I-423]  100%
17. COc1ccccc1S(=O)(=O)NC(=O)c1ncn(-c2ccc(C(F)(F)F)cc2)c1Cl [I-424]  100%
18. COc1cccc(S(=O)(=O)NC(=O)c2ncn(-c3ccc(C(F)(F)F)cc3)c2Cl)c1 [I-425]  100%
19. O=C(NS(=O)(=O)c1ccc(Cl)cc1)c1ncn(-c2ccccc2C(F)(F)F)c1Cl [I-427]  100%
20. O=C(NS(=O)(=O)c1ccccc1Cl)c1ncn(-c2cccc(C(F)(F)F)c2)c1Cl [I-433]  100%
21. O=C(NS(=O)(=O)c1ccccc1)c1ncn(-c2cccc(C(F)(F)F)c2)c1Cl [I-434]  100%
22. COc1ccccc1S(=O)(=O)NC(=O)c1ncn(-c2cccc(C(F)(F)F)c2)c1Cl [I-435]  100%
23. COc1cccc(S(=O)(=O)NC(=O)c2ncn(-c3cccc(C(F)(F)F)c3)c2Cl)c1 [I-436]  100%
24. O=C(NS(=O)(=O)c1ccccc1Cl)c1nc(Br)n(CCC(F)(F)F)c1Cl [I-440]  100%
25. COc1ccc(Cl)c(S(=O)(=O)NC(=O)c2cn(-c3cc(Cl)cc(Cl)c3)c(Br)n2)c1 [I-441]  100%
26. COc1ccc(Cl)c(S(=O)(=O)NC(=O)c2nc(Br)n(-c3cc(Cl)cc(Cl)c3)c2Br)c1 [I-442]  100%
27. COc1ccc(Cl)c(S(=O)(=O)NC(=O)c2cn(-c3cc(Cl)cc(Cl)c3)c(Cl)n2)c1 [I-443]  100%
28. O=C(NS(=O)(=O)c1ccccc1Cl)c1cn(-c2cc(Cl)cc(Cl)c2)c(Cl)n1 [I-444]  100%
29. COc1ccc(Cl)c(S(=O)(=O)NC(=O)c2cc(-c3cc(Cl)cc(Cl)c3)n(CC(F)(F)F)n2)c1 [I-448]  100%
30. CCOc1ccc(Cl)c(S(=O)(=O)NC(=O)c2nc(Cl)n(CCC(F)(F)F)c2Cl)c1 [I-449]  100%
31. CC(C)Oc1ccc(Cl)c(S(=O)(=O)NC(=O)c2nc(Cl)n(CCC(F)(F)F)c2Cl)c1 [I-450]  100%
